Assay results published in ChEMBL document CHEMBL1155876 (J Med Chem, 2008).

Assays:
HCT-116 = assay: Antitumor activity in human HCT116 cells xenografted athymic mouse assessed as growth inhibition at 1 mg/kg, po qd; type: functional; conditions: read-out: TGI
[1] = Inhibition of CDK9/CyclinT1 assessed as residual enzyme activity at 1 uM
[2] = target: BDNF/NT-3 growth factors receptor (Homo sapiens) (UniProt Q16620); assay: Inhibition of TrkB assessed as residual enzyme activity at 1 uM
[3] = target: Casein kinase II subunit alpha (Homo sapiens) (UniProt P68400); assay: Inhibition of human CK2 kinase assessed as residual enzyme activity at 0.1 uM
Sequence of Casein kinase II subunit alpha (Homo sapiens) (P68400 whole entry, looked up): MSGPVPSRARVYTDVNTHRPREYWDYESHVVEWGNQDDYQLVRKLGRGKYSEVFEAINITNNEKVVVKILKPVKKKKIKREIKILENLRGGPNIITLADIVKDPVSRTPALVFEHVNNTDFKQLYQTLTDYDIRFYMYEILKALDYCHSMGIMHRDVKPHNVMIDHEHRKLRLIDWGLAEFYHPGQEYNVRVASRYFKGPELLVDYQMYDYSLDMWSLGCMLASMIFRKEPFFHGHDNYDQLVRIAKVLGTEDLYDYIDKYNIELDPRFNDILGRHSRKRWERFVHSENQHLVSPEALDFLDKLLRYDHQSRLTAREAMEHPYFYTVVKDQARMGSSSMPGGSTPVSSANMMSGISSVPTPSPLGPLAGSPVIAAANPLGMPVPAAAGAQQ

[4] = target: Vascular endothelial growth factor receptor 1 (Homo sapiens) (UniProt P17948); assay: Inhibition of human Flt1 assessed as residual enzyme activity at 0.1 uM
Sequence of Vascular endothelial growth factor receptor 1 (Homo sapiens) (P17948 whole entry, the tested form may be a part): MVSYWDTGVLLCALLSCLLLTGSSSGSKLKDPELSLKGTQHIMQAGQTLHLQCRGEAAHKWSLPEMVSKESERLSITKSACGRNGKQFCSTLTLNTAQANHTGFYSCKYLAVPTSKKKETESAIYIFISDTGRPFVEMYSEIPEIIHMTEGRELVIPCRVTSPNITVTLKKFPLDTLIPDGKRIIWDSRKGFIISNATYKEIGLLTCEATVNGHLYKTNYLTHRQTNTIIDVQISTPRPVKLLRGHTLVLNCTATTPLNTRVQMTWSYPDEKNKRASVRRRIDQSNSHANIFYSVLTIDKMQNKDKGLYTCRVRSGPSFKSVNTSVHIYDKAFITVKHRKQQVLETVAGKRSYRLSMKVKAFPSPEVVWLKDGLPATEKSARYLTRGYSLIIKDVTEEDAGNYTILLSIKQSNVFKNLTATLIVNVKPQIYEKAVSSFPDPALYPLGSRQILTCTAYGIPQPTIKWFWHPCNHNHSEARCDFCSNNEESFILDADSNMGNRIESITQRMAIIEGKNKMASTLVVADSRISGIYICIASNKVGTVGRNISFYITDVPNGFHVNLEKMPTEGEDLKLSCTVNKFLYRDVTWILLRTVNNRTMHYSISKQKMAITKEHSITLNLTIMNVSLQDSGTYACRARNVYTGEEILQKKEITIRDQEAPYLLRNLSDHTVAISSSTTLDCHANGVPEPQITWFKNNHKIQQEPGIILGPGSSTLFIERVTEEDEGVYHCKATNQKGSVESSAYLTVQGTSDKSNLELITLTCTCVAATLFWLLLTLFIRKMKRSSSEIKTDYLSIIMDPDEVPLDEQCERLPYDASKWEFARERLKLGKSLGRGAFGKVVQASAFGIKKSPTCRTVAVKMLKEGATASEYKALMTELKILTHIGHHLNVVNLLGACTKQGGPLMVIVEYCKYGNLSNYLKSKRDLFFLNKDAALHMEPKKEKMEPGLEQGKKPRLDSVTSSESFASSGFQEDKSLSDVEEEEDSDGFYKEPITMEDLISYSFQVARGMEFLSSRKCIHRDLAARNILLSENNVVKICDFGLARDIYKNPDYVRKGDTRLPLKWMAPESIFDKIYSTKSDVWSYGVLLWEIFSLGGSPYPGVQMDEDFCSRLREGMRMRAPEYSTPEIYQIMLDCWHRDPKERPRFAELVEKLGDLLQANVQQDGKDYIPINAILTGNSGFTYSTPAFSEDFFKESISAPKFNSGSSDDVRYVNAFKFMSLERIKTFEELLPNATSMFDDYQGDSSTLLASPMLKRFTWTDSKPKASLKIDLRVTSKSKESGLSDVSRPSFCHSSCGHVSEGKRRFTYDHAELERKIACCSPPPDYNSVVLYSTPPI

[5] = target: LIM domain kinase 1 (Homo sapiens) (UniProt P53667); assay: Inhibition of human LIMK1 kinase assessed as residual enzyme activity at 0.1 uM
Sequence of LIM domain kinase 1 (Homo sapiens) (P53667 whole entry, looked up, the tested form may be a part): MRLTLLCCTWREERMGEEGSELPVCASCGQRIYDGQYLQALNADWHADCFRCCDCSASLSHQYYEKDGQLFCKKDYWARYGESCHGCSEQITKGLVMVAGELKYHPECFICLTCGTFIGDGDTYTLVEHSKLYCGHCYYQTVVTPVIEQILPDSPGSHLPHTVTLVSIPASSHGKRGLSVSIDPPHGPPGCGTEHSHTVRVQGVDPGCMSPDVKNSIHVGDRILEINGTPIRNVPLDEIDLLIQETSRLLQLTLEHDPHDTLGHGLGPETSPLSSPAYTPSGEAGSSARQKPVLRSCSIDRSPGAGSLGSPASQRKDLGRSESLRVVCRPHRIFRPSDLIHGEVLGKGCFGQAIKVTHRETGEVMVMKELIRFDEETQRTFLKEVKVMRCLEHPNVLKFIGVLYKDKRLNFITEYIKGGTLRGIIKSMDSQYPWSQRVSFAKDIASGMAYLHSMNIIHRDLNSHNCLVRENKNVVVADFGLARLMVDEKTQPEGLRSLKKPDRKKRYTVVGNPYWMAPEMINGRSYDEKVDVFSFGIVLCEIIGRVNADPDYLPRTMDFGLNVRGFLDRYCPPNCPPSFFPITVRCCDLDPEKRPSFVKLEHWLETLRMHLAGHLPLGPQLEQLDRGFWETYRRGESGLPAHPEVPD

[6] = target: Serine/threonine-protein kinase MRCK alpha (Homo sapiens) (UniProt Q5VT25); assay: Inhibition of human MRCKalpha kinase assessed as residual enzyme activity at 0.1 uM
[7] = target: Macrophage-stimulating protein receptor (Homo sapiens) (UniProt Q04912); assay: Inhibition of human Ron kinase assessed as residual enzyme activity at 0.1 uM
Sequence of Macrophage-stimulating protein receptor (Homo sapiens) (Q04912 25-304 limits assumed): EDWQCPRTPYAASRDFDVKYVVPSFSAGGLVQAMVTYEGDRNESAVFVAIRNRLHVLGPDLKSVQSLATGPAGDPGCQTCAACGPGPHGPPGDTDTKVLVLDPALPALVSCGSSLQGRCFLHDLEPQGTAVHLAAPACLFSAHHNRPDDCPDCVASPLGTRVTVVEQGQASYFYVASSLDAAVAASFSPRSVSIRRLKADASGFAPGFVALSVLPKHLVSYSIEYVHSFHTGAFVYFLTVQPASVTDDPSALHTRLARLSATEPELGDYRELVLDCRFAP
Sequence of Macrophage-stimulating protein receptor (Homo sapiens) (Q04912 310-1400 limits assumed): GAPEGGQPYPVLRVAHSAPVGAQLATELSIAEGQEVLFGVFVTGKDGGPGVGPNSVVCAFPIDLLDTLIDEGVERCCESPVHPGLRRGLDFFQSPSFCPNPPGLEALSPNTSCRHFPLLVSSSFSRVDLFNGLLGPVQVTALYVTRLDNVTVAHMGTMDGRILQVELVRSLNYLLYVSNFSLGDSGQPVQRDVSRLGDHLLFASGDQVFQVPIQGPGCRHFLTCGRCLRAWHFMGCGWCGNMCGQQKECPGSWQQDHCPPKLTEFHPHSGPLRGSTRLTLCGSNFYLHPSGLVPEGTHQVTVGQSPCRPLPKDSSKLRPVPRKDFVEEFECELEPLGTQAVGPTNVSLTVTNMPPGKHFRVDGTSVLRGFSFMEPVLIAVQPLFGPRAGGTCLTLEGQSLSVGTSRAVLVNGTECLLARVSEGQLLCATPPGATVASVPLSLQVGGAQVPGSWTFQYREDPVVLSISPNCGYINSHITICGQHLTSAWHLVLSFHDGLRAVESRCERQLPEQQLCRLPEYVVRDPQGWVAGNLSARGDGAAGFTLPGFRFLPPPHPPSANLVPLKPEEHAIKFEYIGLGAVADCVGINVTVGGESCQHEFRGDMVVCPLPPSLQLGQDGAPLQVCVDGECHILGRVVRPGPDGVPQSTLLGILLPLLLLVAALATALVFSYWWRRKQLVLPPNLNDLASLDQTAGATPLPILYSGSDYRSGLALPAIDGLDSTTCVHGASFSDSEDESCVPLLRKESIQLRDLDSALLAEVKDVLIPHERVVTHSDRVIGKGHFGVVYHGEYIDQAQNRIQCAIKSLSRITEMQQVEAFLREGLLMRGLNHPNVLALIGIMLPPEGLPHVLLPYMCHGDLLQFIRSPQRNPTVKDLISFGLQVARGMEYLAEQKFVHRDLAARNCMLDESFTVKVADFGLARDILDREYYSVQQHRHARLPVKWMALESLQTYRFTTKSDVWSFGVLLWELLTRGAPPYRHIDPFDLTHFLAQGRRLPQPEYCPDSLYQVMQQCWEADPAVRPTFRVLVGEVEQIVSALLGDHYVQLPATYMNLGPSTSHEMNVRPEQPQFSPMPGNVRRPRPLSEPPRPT

[8] = target: Mitogen-activated protein kinase 14 (Homo sapiens) (UniProt Q16539); assay: Inhibition of human SAPK2a kinase assessed as residual enzyme activity at 0.1 uM
Sequence of Mitogen-activated protein kinase 14 (Homo sapiens) (Q16539 whole entry): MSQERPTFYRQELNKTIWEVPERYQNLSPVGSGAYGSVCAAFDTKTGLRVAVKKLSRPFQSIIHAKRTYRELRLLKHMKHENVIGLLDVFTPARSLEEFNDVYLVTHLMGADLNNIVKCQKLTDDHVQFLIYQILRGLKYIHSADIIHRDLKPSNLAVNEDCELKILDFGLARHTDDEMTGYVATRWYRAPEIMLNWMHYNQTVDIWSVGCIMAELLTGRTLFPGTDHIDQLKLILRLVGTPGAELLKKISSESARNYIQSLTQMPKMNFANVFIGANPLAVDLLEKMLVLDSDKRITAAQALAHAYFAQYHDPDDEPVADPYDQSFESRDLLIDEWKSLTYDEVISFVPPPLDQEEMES

Sequence of BDNF/NT-3 growth factors receptor (Homo sapiens) (Q16620 32-822 limits assumed): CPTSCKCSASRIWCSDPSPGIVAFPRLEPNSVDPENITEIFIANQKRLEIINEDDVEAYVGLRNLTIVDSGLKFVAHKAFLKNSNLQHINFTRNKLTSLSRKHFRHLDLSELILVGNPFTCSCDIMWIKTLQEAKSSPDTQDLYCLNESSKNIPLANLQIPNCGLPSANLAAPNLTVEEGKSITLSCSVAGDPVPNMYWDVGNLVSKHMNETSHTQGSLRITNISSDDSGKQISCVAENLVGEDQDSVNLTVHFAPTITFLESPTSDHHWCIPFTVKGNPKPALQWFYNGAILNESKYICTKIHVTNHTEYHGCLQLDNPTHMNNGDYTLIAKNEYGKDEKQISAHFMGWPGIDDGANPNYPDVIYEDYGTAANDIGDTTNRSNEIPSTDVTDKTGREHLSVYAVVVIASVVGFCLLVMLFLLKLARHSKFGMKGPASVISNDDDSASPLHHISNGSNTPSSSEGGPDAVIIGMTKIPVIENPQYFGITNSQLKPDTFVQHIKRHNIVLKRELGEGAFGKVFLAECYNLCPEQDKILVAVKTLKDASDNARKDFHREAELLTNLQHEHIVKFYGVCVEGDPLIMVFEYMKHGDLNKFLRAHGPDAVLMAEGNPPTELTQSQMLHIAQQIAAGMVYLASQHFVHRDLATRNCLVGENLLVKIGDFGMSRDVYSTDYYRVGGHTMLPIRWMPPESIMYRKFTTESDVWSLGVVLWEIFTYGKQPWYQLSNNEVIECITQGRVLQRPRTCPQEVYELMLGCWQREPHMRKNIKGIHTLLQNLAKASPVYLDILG

Activity [1]: 87%
Activity [2]: 2%
Activity [3]: 104%
Activity [4]: 13%
Activity [5]: 79%
Activity [6]: 98%
Activity [7]: 100%
Activity [8]: 124%
Structure (SMILES): CCN1C(=O)C(C)(C)c2cc3[nH]c4c(c3cc21)CCCc1c(C)n[nH]c1-4
inhibition in vivo at 1 mg/kg (HCT-116): 52%
